Measured values reported in ChEMBL document CHEMBL3994582, “A2B adenosine receptor antagonists: Design, synthesis and biological evaluation of novel xanthine derivatives” (Eur J Med Chem, 2017).

How the values were obtained:
Adenosine receptor A2b = molecular target: T1, Adenosine receptor A2b (Homo sapiens, UniProt P29275); experiment: Displacement of [3H]-MRS-1754 from human adenosine receptor A2b expressed in HEK293 cell membranes after 90 mins by liquid scintillation counting method
T1 sequence (P29275 whole entry): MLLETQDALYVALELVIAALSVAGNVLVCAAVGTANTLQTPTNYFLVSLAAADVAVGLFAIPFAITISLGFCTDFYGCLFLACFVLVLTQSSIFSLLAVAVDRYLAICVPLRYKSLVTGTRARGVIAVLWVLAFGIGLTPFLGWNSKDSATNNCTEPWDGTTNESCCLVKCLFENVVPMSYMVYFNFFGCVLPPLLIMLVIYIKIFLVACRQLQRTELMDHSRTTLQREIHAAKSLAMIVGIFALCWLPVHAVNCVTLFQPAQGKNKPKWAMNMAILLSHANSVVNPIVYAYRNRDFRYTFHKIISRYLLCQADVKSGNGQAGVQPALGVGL

[1] = molecular target: T2, Adenosine receptor A1 (Homo sapiens) (UniProt P30542); experiment: Displacement of [3H]DPCPX from human adenosine receptor A1 expressed in HEK293 cell membranes at 0.1 uM after 90 mins by liquid scintillation counting method relative to control
T2 sequence (whole entry): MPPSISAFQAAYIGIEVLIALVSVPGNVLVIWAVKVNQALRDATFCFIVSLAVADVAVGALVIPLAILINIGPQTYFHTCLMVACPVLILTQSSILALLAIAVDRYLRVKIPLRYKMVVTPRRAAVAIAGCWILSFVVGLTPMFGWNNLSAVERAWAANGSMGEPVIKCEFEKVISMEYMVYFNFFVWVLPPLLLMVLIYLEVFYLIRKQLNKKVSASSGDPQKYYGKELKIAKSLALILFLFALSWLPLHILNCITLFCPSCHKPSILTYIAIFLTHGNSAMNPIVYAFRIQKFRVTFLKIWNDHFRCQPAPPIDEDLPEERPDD

Adenosine receptor A2a = Adenosine receptor A2a (Homo sapiens, UniProt P29274); experiment: Displacement of [3H]-ZM-241385 from human adenosine receptor A2a expressed in HEK293 cell membranes at 0.1 uM after 90 mins by liquid scintillation counting method relative to control
Sequence of Adenosine receptor A2a (P29274 whole entry): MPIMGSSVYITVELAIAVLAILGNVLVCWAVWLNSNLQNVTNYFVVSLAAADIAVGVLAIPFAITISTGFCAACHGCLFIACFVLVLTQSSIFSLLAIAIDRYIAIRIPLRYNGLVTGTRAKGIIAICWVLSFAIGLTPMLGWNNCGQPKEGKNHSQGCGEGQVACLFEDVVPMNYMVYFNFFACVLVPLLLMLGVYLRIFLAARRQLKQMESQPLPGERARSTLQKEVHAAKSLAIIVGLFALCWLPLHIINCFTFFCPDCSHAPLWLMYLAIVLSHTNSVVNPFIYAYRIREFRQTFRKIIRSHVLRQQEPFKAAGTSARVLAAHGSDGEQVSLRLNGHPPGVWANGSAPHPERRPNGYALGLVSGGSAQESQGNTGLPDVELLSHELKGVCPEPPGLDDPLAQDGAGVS

Liver [2] = experiment: Metabolic stability in mouse liver microsomes assessed as metabolic rate per mg protein preincubated for 5 mins followed by NADPH addition measured up to 30 mins by LC-MS/MS analysis; type: ADME, microsome; conditions: 0.5 h
[3] = molecular target: T3, Adenosine receptor A3 (Homo sapiens) (UniProt P0DMS8); experiment: Displacement of [3H]-HEM-ADO from human adenosine receptor A3 expressed in HEK293 cell membranes at 1 uM after 90 mins by liquid scintillation counting method relative to control
T3 sequence (whole entry): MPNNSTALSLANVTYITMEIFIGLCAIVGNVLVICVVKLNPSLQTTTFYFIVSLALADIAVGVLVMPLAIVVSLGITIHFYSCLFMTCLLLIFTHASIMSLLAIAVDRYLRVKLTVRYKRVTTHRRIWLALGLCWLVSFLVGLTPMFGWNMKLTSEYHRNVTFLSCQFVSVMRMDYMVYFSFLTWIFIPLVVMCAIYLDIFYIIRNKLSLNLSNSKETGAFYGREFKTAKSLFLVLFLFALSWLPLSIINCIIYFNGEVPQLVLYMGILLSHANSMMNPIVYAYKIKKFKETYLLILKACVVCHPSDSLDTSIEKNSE

Liver [4] = experiment: Metabolic stability in human liver microsomes assessed as metabolic rate per mg protein preincubated for 5 mins followed by NADPH addition measured up to 30 mins by LC-MS/MS analysis; type: ADME, microsome; conditions: 0.5 h

Row | Ki (Adenosine receptor A2b) [nM] | inhibition [1] [%] | inhibition (Adenosine receptor A2a) [%] | Drug metabolism (Liver [2]) [nmol/min/mg] | inhibition [3] [%] | Drug metabolism (Liver [4]) [nmol/min/mg] | SMILES
1 | 3.6 | 38 | 57 | 0 | 2 | 0.01 | CCCn1c(=O)c2[nH]c(-c3cnn(CC4CCN(c5cccc(C(F)(F)F)c5)C4)c3)nc2n(CCC)c1=O (stereo unspecified)
2 | 13 | 21 | 53 | 0.43 | 3 | 0.37 | CCCn1c(=O)c2[nH]c(-c3cnn(CC4CCN(c5ccc(OC)cc5)C4)c3)nc2n(CCC)c1=O (stereo unspecified)
3 | 9 | 38 | 51 | 0.22 | 27 | 0.19 | CCCn1c(=O)c2[nH]c(-c3cnn(CC4CC(=O)N(c5ccc(OC)cc5)C4)c3)nc2n(CCC)c1=O (stereo unspecified)
4 | 13.7 | 43 | 69 | 0.67 | 12 | 0.78 | CCCn1c(=O)c2[nH]c(-c3cnn(CC4CCN(c5cccc(OC)c5)C4)c3)nc2n(CCC)c1=O (stereo unspecified)
5 | 14 | 23 | 26 | 0.15 | 2 | 0.16 | CCCn1c(=O)c2[nH]c(-c3cnn(CC4CCN(c5ccc(OC(F)(F)F)cc5)C4)c3)nc2n(CCC)c1=O (stereo unspecified)

Second part, the molecule before the results:

Row | SMILES | Ki (Adenosine receptor A2b) [nM] | inhibition [1] [%] | inhibition (Adenosine receptor A2a) [%] | Drug metabolism (Liver [2]) [nmol/min/mg] | inhibition [3] [%] | Drug metabolism (Liver [4]) [nmol/min/mg]
6 | CCCn1c(=O)c2[nH]c(-c3cnn(CC4CC(=O)N(c5ccc(C)cc5)C4)c3)nc2n(CCC)c1=O (stereo unspecified) | 8 | 33 | 37 | 0.25 | 0 | –
7 | CCCn1c(=O)c2[nH]c(-c3cnn(CC(O)C4CC(=O)N(c5cccc(C(F)(F)F)c5)C4)c3)nc2n(CCC)c1=O (stereo unspecified) | 1.2 | 12 | 60 | 0.22 | 27 | 0.19
8 | CCCn1c(=O)c2[nH]c(-c3cnn(CC4CC(=O)N(c5cccc(C(F)(F)F)c5)C4)c3)nc2n(CC)c1=O (stereo unspecified) | 4.5 | 18 | 23 | 0.49 | 0 | 0.12
9 | CCCn1c(=O)c2[nH]c(-c3cnn(CC(=O)N4CCN(c5ccc(C)cc5)CC4)c3)nc2n(CCC)c1=O | 5 | 58 | 58 | – | 11 | –
10 | CCCn1c(=O)c2[nH]c(-c3cnn(CC4CC(=O)N(c5cccc(C(F)(F)F)c5)C4)c3)nc2n(CCC)c1=O (stereo unspecified) | 6.5 | 25 | 48 | 0.61 | 31 | 0.18
11 | CCCn1c(=O)c2[nH]c(-c3cnn(CC4CC(=O)N(c5ccc(F)cc5F)C4)c3)nc2n(CCC)c1=O (stereo unspecified) | 19 | 13 | 45 | 0.48 | 0 | 0.03
12 | CCCn1c(=O)c2[nH]c(-c3cnn(CC4CC(=O)N(c5cccc(OC(F)(F)F)c5)C4)c3)nc2n(CCC)c1=O (stereo unspecified) | 9 | 20 | 49 | 0.57 | 0 | 0.23
13 | CCCn1c(=O)c2[nH]c(-c3cnn(CC4CCN(c5cccc(C(F)(F)F)c5)C4=O)c3)nc2n(CCC)c1=O (stereo unspecified) | 6 | 58 | 30 | 0.34 | 17 | 0.2
14 | CCCn1c(=O)c2[nH]c(-c3cnn(CC4CC(=O)N(c5cccc(F)c5)C4)c3)nc2n(CC)c1=O (stereo unspecified) | 24 | 30 | 37 | 0.29 | 0 | 0.06
15 | CCCn1c(=O)c2[nH]c(-c3cnn(CC(=O)N4CCN(c5ccc(F)cc5F)CC4)c3)nc2n(CCC)c1=O | 10.7 | 45 | 56 | 0.23 | 0 | 0.11
16 | CCCn1c(=O)c2[nH]c(-c3cnn(CC(=O)N4CCN(c5ccc(C(F)(F)F)cc5)CC4)c3)nc2n(CCC)c1=O | 0.9 | 53 | 71 | – | 11 | –
